SMILES strings stand for the structures. Calls of active or inactive are those of the source. No cut-off for these calls is given here.

One series concerns HL-60. Nature of the series: cells. The note with it: Homo sapiens, HL-60, 72 h.
Another series deals with KB. Particulars: Homo sapiens, 72 h.
The subject of series [1] is H9c2. Nature of the series: Cardioprotection in rat H9c2 cells assessed as reduction in doxorubicin-induced toxicity at 100 nM pre-treated 10 hrs before doxorubicin challenge and measured 14 hrs post doxorubicin challenge by propidium iodide and annexin V staining. The class given is functional, cell-based.
A further series concerns HCT-116. Particulars: Homo sapiens, HCT-116, 72 h.
The species named for series [2] is Rattus norvegicus. Nature of the series: Neuroprotection in Wistar rat DA neurons assessed as reduction in MPP+-induced neurotoxicity at 0.1 to 1000 nM pre-treated 1 day before MPP+ by tyrosine hydroxylase detection based immunocytochemistry. Type of series: functional.
Series [3] concerns Cerebellar granule neurone. Nature of the series: Neuroprotection in mouse cerebellar granule neurons assessed as reduction in cisplatin-induced neurotoxicity at 1 to 5 nM incubated simultaneously with cisplatin for 48 hrs by MTT assay. Type of series: functional. For orientation: Tetrazolium assays rely on reduction of a dye to a coloured formazan, in cell work by metabolically active cells.

The nature of series [4]: Toxicity in mouse cerebellar granule neurons assessed as induction of apoptosis at 0.25 to 10 nM incubated for 48 hrs by MTT assay. Particulars: cerebellar granule neurone, 0.01 µM.
The test system of series [5] is H9c2. Nature of the series: Cardioprotection in rat H9c2 cells assessed as reduction in doxorubicin-induced toxicity at 10 nM pre-treated 10 hrs before doxorubicin challenge and measured 14 hrs post doxorubicin challenge by propidium iodide and annexin V staining. Type of series: functional, cell-based.
Series [6] can be described thus: Cytotoxicity against human HL60R cells overexpressing Pgp incubated for 72 hrs by MTS assay.
The species named for series [7] is Rattus norvegicus. Nature of the series: Neuroprotection in Wistar rat DA neurons assessed as reduction in MPP+-induced neurotoxicity at 1 to 1000 nM pre-treated 1 day before MPP+ by tyrosine hydroxylase detection based immunocytochemistry. Type of series: functional.
The subject of series [8] is Cerebellar granule neurone. Nature of the series: Neuroprotection in mouse cerebellar granule neurons assessed as reduction in cisplatin-induced neurotoxicity at 0.25 to 10 nM incubated simultaneously with cisplatin for 48 hrs by MTT assay. Type of series: functional.
The species entered for series [9] is Rattus norvegicus. Nature of the series: Neuroprotection in Wistar rat DA neurons assessed as reduction in MPP+-induced neurotoxicity at 1 to 100 nM pre-treated 1 day before MPP+ by tyrosine hydroxylase detection based immunocytochemistry. Type of series: functional.
For series [10], the system named is Cerebellar granule neurone. Nature of the series: Neuroprotection in mouse cerebellar granule neurons assessed as reduction in cisplatin-induced neurotoxicity at 5 nM incubated simultaneously with cisplatin for 48 hrs by MTT assay. Type of series: functional.
Series [11] is filed under the species Rattus norvegicus. Nature of the series: Neuroprotection in Wistar rat DA neurons assessed as reduction in MPP+-induced neurotoxicity at 10 uM pre-treated 1 day before MPP+ by tyrosine hydroxylase detection based immunocytochemistry. Type of series: functional.
The species entered for series [12] is Rattus norvegicus. Nature of the series: Neuroprotection in Wistar rat DA neurons assessed as reduction in MPP+-induced neurotoxicity at 100 nM pre-treated 1 day before MPP+ by tyrosine hydroxylase detection based immunocytochemistry. Type of series: functional.
For series [13], the system named is Cerebellar granule neurone. Nature of the series: Neuroprotection in mouse cerebellar granule neurons assessed as reduction in cisplatin-induced neurotoxicity at 10 nM incubated simultaneously with cisplatin for 48 hrs by MTT assay. Type of series: functional.
The species entered for series [14] is Rattus norvegicus. Nature of the series: Neuroprotection in Wistar rat DA neurons assessed as reduction in MPP+-induced neurotoxicity at 10 nM pre-treated 1 day before MPP+ by tyrosine hydroxylase detection based immunocytochemistry. Type of series: functional.
The species entered for series [15] is Rattus norvegicus. Nature of the series: Neuroprotection in Wistar rat DA neurons assessed as reduction in MPP+-induced neurotoxicity at 1 nM pre-treated 1 day before MPP+ by tyrosine hydroxylase detection based immunocytochemistry. Type of series: functional.
The species entered for series [16] is Mus musculus. Nature of the series: Cardioprotective effect in mouse assessed as attenuation of cardiomyocyte apoptosis by measuring reduction in mouse mortality. The class given is functional. More on the design: scale not given: the % may be the effect or the level left.
Series [17] is filed under the species Mus musculus. Nature of the series: Cardioprotective effect in mouse assessed as attenuation of cardiac fibrosis by measuring reduction in mouse mortality. Type of series: functional, Heart. Further details: scale not given: the % may be the effect or the level left.

Description for HL-60: Cytotoxicity against human HL60 cells incubated for 72 hrs by MTS assay

By IC50 is commonly meant the concentration that inhibits the measured activity by half. Regarding `COC(=O)N[C@H]1C[C@@H](c2cccc(F)c2)[C@]2(c3ccc(Cl)cc3)Oc3cc(OC)cc(OC)c3[C@]12O`, the figures for the IC50 with HL-60, with KB and in the series with HCT-116 were 71 nM, 50 nM and 38 nM, respectively. Besides, the outcome with H9c2 [1] and in the series listed under Rattus norvegicus [2] was Active.
For `COc1cc(OC)c2c(c1)O[C@@]1(c3ccc(Br)cc3)[C@H](c3ccccc3)C[C@H](NC=O)[C@@]21O`, the outcome (in series [3]; with H9c2 [5]; in the series filed under Rattus norvegicus [7]; in [8]; in the series listed under Rattus norvegicus [9]) was Active. Besides, the Activity entry in series [4] is reported as “Non-toxic”. Also, the IC50 in series [6] came out at 1.7 nM.
Regarding `COc1cc(OC)c2c(c1)O[C@@]1(c3ccc(Cl)cc3)[C@H](c3ccccc3)C[C@@H](O)[C@@]21O`, the IC50 was 5.9 nM in the series on HL-60, 6.6 nM in the series on KB, 2.4 nM in series [6] and 4.6 nM with HCT-116. The outcome with H9c2 [5] and in the series on H9c2 [1] was Active.
On to `COc1cc(OC)c2c(c1)O[C@@]1(c3ccc(Br)cc3)[C@H](c3cccc(F)c3)C[C@@H](O)[C@@]21O`, for which the IC50 with HL-60 is 8.9 nM; in the series on KB it was 10 nM; in series [6], 3.1 nM; with HCT-116, 5.3 nM. Moreover, the result with H9c2 [5] and in the series on H9c2 [1] was Active.
Regarding `CC(=O)O[C@@]12CO[C@@H]1C[C@H](O)[C@@]1(C)C(=O)[C@H](O)C3=C(C)[C@@H](OC(=O)[C@H](O)[C@@H](NC(=O)OC(C)(C)C)c4ccccc4)C[C@@](O)([C@@H](OC(=O)c4ccccc4)[C@H]21)C3(C)C` [DOCETAXEL], in series [6], the IC50 was found to be 531 nM.
On to `COC(=O)[C@H]1[C@@H](O)[C@@]2(O)c3c(OC)cc(OC)cc3O[C@@]2(c2ccc(OC)cc2)[C@@H]1c1cccc(F)c1`, for which the IC50 was determined as 20 nM in the series with HL-60, 9.9 nM in the series with KB, 28 nM in [6] and 5.2 nM with HCT-116.
For `COc1cc(OC)c2c(c1)O[C@@]1(c3ccc(Br)cc3)[C@H](c3cccc(F)c3)[C@@H](C(N)=O)[C@@H](O)[C@@]21O`, the IC50 in the series on HL-60 amounted to 1.4 nM; with KB, 1.2 nM; in [6], 3.3 nM; with HCT-116, 1.2 nM. In addition, the outcome in the series with H9c2 [5] was Active. For the same compound, in the series on H9c2 [1], the result was inactive.
For `COc1cc(OC)c2c(c1)O[C@@]1(c3ccc(Cl)cc3)[C@H](c3cccc(F)c3)C[C@H](NC=O)[C@@]21O`, the IC50 in the series on HL-60 is 13 nM; in the series on KB it was 10 nM; with HCT-116, 8.2 nM. The result in the series on H9c2 [5] and with H9c2 [1] was Active.
`COc1cc(OC)c2c(c1)O[C@@]1(c3ccc(Br)cc3)[C@H](c3cccc(F)c3)C[C@H](NC(=O)CN(C)C)[C@@]21O`: the IC50 in the series with HL-60 came to 4.8 nM; with KB it was 5.8 nM; in series [6], 5.6 nM; in the series with HCT-116 it was 5 nM. In addition, the result with H9c2 [5] and in the series on H9c2 [1] was Active.
Take `COc1cc(OC)c2c(c1)O[C@@]1(c3ccc(Br)cc3)[C@H](c3cccc(F)c3)C[C@H](NC(N)=O)[C@@]21O`: the IC50 with HL-60 was found to be 3.3 nM; in the series on KB, 2.9 nM; in the series with HCT-116 it was 2.1 nM.
For `COc1cc(OC)c2c(c1)O[C@@]1(c3ccc(Br)cc3)[C@H](c3cccc(F)c3)C[C@H](NC(C)=O)[C@@]21O`, the IC50 in the series on HL-60 worked out at 10 nM; with KB it was 8.4 nM; in series [6] it was 7.1 nM; in the series on HCT-116, 7.5 nM. In addition, in the series with H9c2 [5], the outcome was Active. In the series on H9c2 [1], the outcome was inactive.
For `COc1ccc([C@@]23Oc4cc(OC)cc(OC)c4[C@]2(O)[C@H](O)C[C@H]3c2cccc(F)c2)cc1`, the IC50 in the series on HL-60 is 94 nM; in the series with KB, 41 nM; in [6] it was 60 nM; in the series with HCT-116, 23 nM. In addition, the Activity result in series [4] was “Non-toxic”. Also, the outcome (in the series on H9c2 [5]; in [10]; in the series on H9c2 [1]; in the series filed under Rattus norvegicus [12]) was Active. Besides, the result (in the series filed under Rattus norvegicus [11]; in series [13]) was inactive.
Take `CC[C@]1(O)C[C@@H]2CN(CCc3c([nH]c4ccccc34)[C@@](C(=O)OC)(c3cc4c(cc3OC)N(C)[C@H]3[C@@](O)(C(=O)OC)[C@H](OC(C)=O)[C@]5(CC)C=CCN6CC[C@]43[C@@H]65)C2)C1` [VINBLASTINE]: in series [6], the concentration for half-maximal inhibition (IC50) was > 100 nM.
In the case of `COC(=O)[C@H]1[C@@H](O)[C@@]2(O)c3c(OC)cc(OC)cc3O[C@@]2(c2ccc(Cl)cc2)[C@@H]1c1ccccc1`, the IC50 was 29 nM in the series with HL-60, 2.4 nM in the series on KB, 13 nM in [6] and 19 nM in the series with HCT-116.
For `COc1cc(OC)c2c(c1)O[C@@]1(c3ccc(Cl)cc3)[C@H](c3cccc(F)c3)C[C@H](NC(=O)N(C)C)[C@@]21O`, the IC50 in the series with HL-60 is 3.2 nM; in the series on KB, 2.1 nM; with HCT-116, 1.9 nM. Besides, the result in the series with H9c2 [5] and in the series on H9c2 [1] was Active. Also, in the series listed under Rattus norvegicus [14], the outcome was inactive.
For `COc1cc(OC)c2c(c1)O[C@@]1(c3ccc(Br)cc3)[C@H](c3cccc(F)c3)C[C@H](NC(=O)CO)[C@@]21O`, the IC50 in the series on HL-60 came out at 31 nM; in the series with KB it was 37 nM; in [6], 42 nM; with HCT-116 it was 22 nM. For the same compound, the result with H9c2 [5] was inactive. Besides, the result in the series on H9c2 [1] was Active.
`COc1cc(OC)c2c(c1)O[C@@]1(c3ccc(Br)cc3)[C@H](c3cccc(F)c3)C[C@H](NC(=O)N(C)C)[C@@]21O`: the IC50 amounted to 4.1 nM in the series on HL-60, 3.6 nM with KB, 2.2 nM in series [6] and 2.4 nM in the series on HCT-116. The Activity entry in series [4] is given as “Non-toxic”. Besides, the result in the series listed under Rattus norvegicus [15], in the series with H9c2 [5], with H9c2 [1] and in the series filed under Rattus norvegicus [2] was Active.
As to `COc1cc(OC)c2c(c1)O[C@@]1(c3ccc(Br)cc3)[C@H](c3ccccc3)C[C@@H](O)[C@@]21O`, the IC50 in the series with HL-60 was determined as 3.8 nM; in the series on KB, 2.4 nM; in series [6] it was 4.5 nM; in the series on HCT-116 it was 5.8 nM. Besides, the Activity in the series filed under Mus musculus [16] and in the series filed under Mus musculus [17] was 50% throughout. The outcome in the series on H9c2 [5], in the series with H9c2 [1] and in the series filed under Rattus norvegicus [14] was Active.
`CCC(=O)N[C@H]1C[C@@H](c2cccc(F)c2)[C@]2(c3ccc(Br)cc3)Oc3cc(OC)cc(OC)c3[C@]12O`: the IC50 was determined as 6.2 nM with HL-60, 7.8 nM with KB, 4.9 nM in series [6] and 5.3 nM in the series with HCT-116. Also, the outcome in the series with H9c2 [5] was Active. Further, the result in the series with H9c2 [1] was inactive.
In the case of `COC(=O)[C@H]1[C@@H](O)[C@@]2(O)c3c(OC)cc(OC)cc3O[C@@]2(c2ccc(Br)cc2)[C@@H]1c1cccc(F)c1`, the IC50 was found to be 3.2 nM in the series on HL-60, 2.8 nM with KB, 14 nM in series [6] and 2.4 nM in the series on HCT-116. Besides, in the series listed under Rattus norvegicus [9], the result was Active.
Consider `COc1cc(OC)c2c(c1)O[C@@]1(c3ccc(Br)cc3)[C@H](c3cccc(F)c3)C[C@H](NC=O)[C@@]21O`, for which the IC50 stood at 3.4 nM in the series on HL-60, 3.5 nM in the series with KB, 1.4 nM in series [6] and 1.9 nM in the series on HCT-116. Also, the outcome with H9c2 [5] was Active.
